The values that follow come from patent US20050154032A1, “Methods of using zonisamide as an adjunctive therapy for partial seizures” (Eisai Co., Ltd, priority 2004, published 2005).

The conditions of data set [1]: cited from earlier work; for hyperammonemia as adverse event: literature.
For the next data set, the system named is rat hippocampal slices. Conditions: 10-30 μg/mL; cited from earlier work.
In data set [2] the test system is GABA/benzodiazepine receptor ionophore complex. Conditions: in vitro; cited from earlier work.
In a further data set the test system is hepatic enzyme. Conditions: cited from earlier work.
The conditions of data set [3]: human, in vivo. From the text: The pharmacovigilance data that were collected, reviewed and analyzed provided the following information in respect of the incidence of hyperammonemia. A total of 4 cases fulfilled the criteria of potential hyperammonemia cases. These cases were reviewed in detail for evaluation of possible safety signals. Two US cases were reported as either high ammonia levels or increased ammonia. Two Japanese cases were reported as hyperammonemia.
Of these, two (2) cases (both ZON1000262 and ZON1000346) had strong confounding factors and seem to-be unrelated to zonisamide, but the possibility of zonisamide involvement cannot be completely excluded. The two cases of hyperammonemia originated from Japan and both involved adult patients. Both cases were serious and described as life-threatening. […]
Estimates of exposure, based upon retail and mail order prescriptions, indicate that the number of unique patients taking zonisamide capsules in the U.S. is about 37,276 (total prescriptions per year/average number of prescriptions per patient per year less a calculated percentage decrease based on estimated annual dropouts) in the time between approval in 2000 and December 2002. […] Similarly, the incidences of NMS estimated herein are unlikely to be higher than calculated. Based on the exposure data and number of hyperammonemia cases, the incidence of hyperammonemia is calculated to be about […].

Data set [4] concerns cultured mouse spinal cord neurons. Conditions: 10-30 μg/mL; cited from earlier work.
The subject of data set [5] is dopaminergic and serotonergic neurotransmission. Conditions: in vivo microdialysis; cited from earlier work.
The next data set concerns carbonic anhydrase. Conditions: fraction of acetazolamide inhibition; cited from earlier work.
A further data set relates to T-type Ca^2+ currents. Conditions: in vitro; cited from earlier work.
The conditions of data set [6]: upon reaching a stable dose or following dosage adjustment; cited from earlier work.
For a further data set, the system named is sodium channels. Conditions: in vitro; cited from earlier work.

Each structure is given as a SMILES string.

Take `NC(=O)N1c2ccccc2C=Cc2ccccc21` [carbamazepine]: the “hyperammonemia as adverse event” value in [1] was “known to cause hyperammonemia”.

Take `CCCC(CCC)C(=O)O` [valproate]: the “hyperammonemia as adverse event” value in data set [1] is recorded as “known to cause hyperammonemia”. Also, in data set [1] (since 1979 (O'Neil et al. 2002)), the “cases of hyperammonemia associated with the drug” value is listed as “more than 30 cases”.

Take `NS(=O)(=O)Cc1noc2ccccc12` [zonisamide, 1,2-benzisoxazole-3-methanesulfonamide]: the “neuronal or glial uptake of [3H]-GABA” value in the data set with rat hippocampal slices was “without affecting”. Besides, the “binding to GABA/benzodiazepine receptor ionophore complex” value in data set [2] was “binds to the GABA/benzodiazepine receptor ionophore complex in an allosteric fashion”. In the data set on hepatic enzyme, the hepatic enzyme induction entry was “not known to be a hepatic enzyme inducer”. For the same molecule, in data set [3], the “cases fulfilling the criteria of potential hyperammonemia cases” value came to 4 cases and the incidence of hyperammonemia entry is recorded as “about 1:1,222,453”. In data set [4], the “postsynaptic GABA or glutamate responses” value is given as “without affecting” and the synaptically-driven electrical activity is recorded as “suppresses”. Further, the “dopaminergic and serotonergic neurotransmission” value in data set [5] is reported as “facilitates”. Besides, the “carbonic anhydrase inhibition compared to acetazolamide” value in the data set with carbonic anhydrase is 1/50. Moreover, in the data set with T-type Ca^2+ currents, the “effect on voltage-dependent, transient inward currents (T-type Ca2+ currents)” value is “reduces”. Moreover, the “time required to achieve steady-state levels” value in [6] is “up to two weeks”. Moreover, the “effect on sodium channels” value with sodium channels was “blocks sodium channels”.
